Laboratory results published in publication PMC12974487, “Inhibition of FicD-mediated AMPylation and deAMPylation by isoprenoid diphosphates” (Proceedings of the National Academy of Sciences of the …, 2026).

Molecular target: T1, FicD^E234G (Homo sapiens, UniProt Q9BVA6, E234G)
T1 construct: soluble ER luminal domain (residues 105 to 458) of wild-type human FicD and three mutants; 6xHis-Sumo (N, cleaved yes); made in house; host or cells: Rosetta(DE3) E. coli
T1 sequence (Q9BVA6 105-458 E234G): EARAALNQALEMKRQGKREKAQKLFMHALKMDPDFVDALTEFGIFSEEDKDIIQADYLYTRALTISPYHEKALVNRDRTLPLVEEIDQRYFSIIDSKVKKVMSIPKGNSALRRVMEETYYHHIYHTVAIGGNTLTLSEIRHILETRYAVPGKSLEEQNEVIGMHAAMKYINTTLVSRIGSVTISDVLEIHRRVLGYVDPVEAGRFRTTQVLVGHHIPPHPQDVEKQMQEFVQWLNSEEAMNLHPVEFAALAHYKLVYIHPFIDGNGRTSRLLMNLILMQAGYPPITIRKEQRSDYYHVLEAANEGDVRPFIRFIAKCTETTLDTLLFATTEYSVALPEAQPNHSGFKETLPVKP
Assay: Total (intact) mass analysis of FicD^E234G incubated with FPP
Details: 50uM FPP, 5mM MgCl2
Excerpt: To reveal the mechanism of FicD inhibition by FPP, we leveraged the FicD^E234G mutant for structural studies. We soaked FPP into crystals of the FicD^E234G variant and solved the ligand-bound structure (Fig. 5 A and B). […] The diphosphate group of FPP closely overlapped with the ADP diphosphate when superimposed with a FicD^E234G-ADP structure (Fig. 5 A, Left), and the hydrophobic isoprenyl groups of FPP overlap with the nucleoside in the active site binding pocket (Fig. 5 A, Right). The FPP diphosphate binds directly to the side chains of N369, R371, with the sidechain of D367 coordinating the Mg^2+ (Fig. 5B). These interactions mimic those observed between ADP/ATP and FicD ([26]). […] As previously noted, only GPP and FPP could bind to and inhibit FicD, but analogs of the isoprenoid-pyrophosphate metabolites (geraniol, GMP, farnesol, FMP, DMAPP, and MVAPP) could not (Fig. 2 B–D). Together, these observations indicate both the pyrophosphate head and the long isoprenoid tail of GPP/FPP contribute to the binding with FicD. […]
Intact mass analysis of proteins was performed by the UT Southwestern Proteomics Core. Intact protein samples were analyzed by LC/MS, using a Sciex X500B QTOF mass spectrometer operating in positive ion mode, coupled to an Agilent 1290 Infinity II HPLC. […]

CC(C)=CCC/C(C)=C/CC/C(C)=C/COP(=O)(O)OP(=O)(O)O [FPP, farnesyl-pyrophosphate]
mass shift associated with putative FPP automodification: no mass shift
